Experimental data reported in ChEMBL document CHEMBL3407450, “Design of new hybrid template by linking quinoline, triazole and dihydroquinoline pharmacophoric groups: A greener approach to novel polyazaheterocycles as cytotoxic agents” (Bioorg Med Chem Lett, 2015).

Experiments:
[1] = tested on: A549; assay: Cytotoxicity against human A549 cells assessed as cell viability after 48 hrs by MTT assay; type: functional, cell-based; conditions: A549, 48 h
[2] = tested on: MCF7; assay: Cytotoxicity against human MCF7 cells assessed as cell viability after 48 hrs by MTT assay; type: functional, cell-based; conditions: MCF7, 48 h
[3] = tested on: DU-145; assay: Cytotoxicity against human DU145 cells assessed as cell viability after 48 hrs by MTT assay; type: functional, cell-based; conditions: DU-145, 48 h
[4] = tested on: HepG2; assay: Cytotoxicity against human HepG2 cells assessed as cell viability after 48 hrs by MTT assay; type: functional, cell-based; conditions: HepG2, 48 h
[5] = molecular target: 3',5'-cyclic-AMP phosphodiesterase 4B (Homo sapiens) (UniProt Q07343); assay: Inhibition of PDE4B (unknown origin) transfected into Sf9 cells at 30 uM by PDElight HTS cAMP phosphodiesterase assay
[6] = molecular target: 3',5'-cyclic-AMP phosphodiesterase 4D (Homo sapiens) (UniProt Q08499); assay: Inhibition of PDE4D (unknown origin) transfected into Sf9 cells at 30 uM by PDElight HTS cAMP phosphodiesterase assay
Chain of 3',5'-cyclic-AMP phosphodiesterase 4D (Homo sapiens) (Q08499 whole entry): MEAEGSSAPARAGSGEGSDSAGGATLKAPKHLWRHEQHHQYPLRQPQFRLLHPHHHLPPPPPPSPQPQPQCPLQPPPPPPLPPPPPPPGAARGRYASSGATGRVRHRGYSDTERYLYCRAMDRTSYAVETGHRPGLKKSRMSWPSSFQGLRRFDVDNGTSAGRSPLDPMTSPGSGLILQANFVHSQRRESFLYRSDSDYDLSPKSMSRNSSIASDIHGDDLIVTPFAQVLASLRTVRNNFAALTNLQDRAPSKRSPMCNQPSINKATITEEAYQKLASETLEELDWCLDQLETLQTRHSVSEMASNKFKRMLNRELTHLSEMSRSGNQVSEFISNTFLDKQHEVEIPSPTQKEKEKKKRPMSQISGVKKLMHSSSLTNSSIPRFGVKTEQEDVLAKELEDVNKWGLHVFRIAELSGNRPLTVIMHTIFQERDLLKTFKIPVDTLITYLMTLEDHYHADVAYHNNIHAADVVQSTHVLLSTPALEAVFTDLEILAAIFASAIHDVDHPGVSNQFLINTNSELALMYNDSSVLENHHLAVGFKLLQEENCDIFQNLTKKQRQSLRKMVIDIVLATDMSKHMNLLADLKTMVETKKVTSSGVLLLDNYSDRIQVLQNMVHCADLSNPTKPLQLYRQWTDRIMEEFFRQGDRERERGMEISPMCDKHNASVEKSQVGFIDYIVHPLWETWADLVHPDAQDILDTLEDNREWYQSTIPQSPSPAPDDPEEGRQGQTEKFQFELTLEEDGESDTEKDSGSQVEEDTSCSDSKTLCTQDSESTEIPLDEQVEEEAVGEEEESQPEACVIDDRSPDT

Chain of 3',5'-cyclic-AMP phosphodiesterase 4B (Homo sapiens) (Q07343 whole entry): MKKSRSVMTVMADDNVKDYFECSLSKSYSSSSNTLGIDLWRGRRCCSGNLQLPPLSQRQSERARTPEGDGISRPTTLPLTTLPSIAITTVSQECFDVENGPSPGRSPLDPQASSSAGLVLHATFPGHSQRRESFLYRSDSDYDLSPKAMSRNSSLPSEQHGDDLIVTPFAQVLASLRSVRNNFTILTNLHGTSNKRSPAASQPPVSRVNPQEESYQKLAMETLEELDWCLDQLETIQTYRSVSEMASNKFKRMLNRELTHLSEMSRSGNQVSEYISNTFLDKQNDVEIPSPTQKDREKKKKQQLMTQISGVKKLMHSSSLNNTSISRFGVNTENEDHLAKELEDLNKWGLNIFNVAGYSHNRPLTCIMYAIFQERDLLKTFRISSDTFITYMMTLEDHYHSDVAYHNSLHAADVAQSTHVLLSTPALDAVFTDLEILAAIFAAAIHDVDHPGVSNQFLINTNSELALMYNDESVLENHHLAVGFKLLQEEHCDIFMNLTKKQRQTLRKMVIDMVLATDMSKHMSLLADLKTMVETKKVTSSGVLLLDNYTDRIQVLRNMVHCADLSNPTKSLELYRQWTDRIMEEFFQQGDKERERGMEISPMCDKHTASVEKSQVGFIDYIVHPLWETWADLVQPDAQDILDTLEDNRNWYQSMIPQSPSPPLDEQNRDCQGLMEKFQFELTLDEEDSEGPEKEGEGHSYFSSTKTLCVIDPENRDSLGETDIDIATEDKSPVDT

Row | inhibition [5] [%] | inhibition [6] [%] | Structure (SMILES) | IC50 [1] [µM] | IC50 [2] [µM] | IC50 [3] [µM] | IC50 [4] [µM]
1 | – | – | CC1=CC(C)(C)N(Cc2cn(Cc3cc4ccccc4nc3Cl)nn2)c2ccccc21 | 17.5 | 16.2 | 19.3 | 13.1
2 | – | – | COc1ccc2c(c1)C(C)=CC(C)(C)N2Cc1cn(Cc2cc3cc(OC)ccc3nc2Cl)nn1 | 30.9 | 26.4 | 28.6 | 27.2
3 | – | – | CC1=CC(C)(C)N(Cc2cn(Cc3cc4ccc(C)cc4nc3Cl)nn2)c2ccccc21 | 11.1 | 10.8 | 27 | 26.2
4 | – | – | COc1cccc2c1C(=O)c1c(O)c3c(c(O)c1C2=O)C[C@@](O)(C(=O)CO)C[C@@H]3O[C@H]1C[C@H](N)[C@H](O)[C@H](C)O1 [DOXORUBICIN] | 9.7 | 0.8 | 0.5 | 3.5
5 | 88 | 52 | COc1ccc2nc(Cl)c(Cn3cc(CN4c5ccc(C)cc5C(C)=CC4(C)C)nn3)cc2c1 | 15.5 | 14.3 | 19.8 | 21.6
6 | – | – | CC1=CC(C)(C)N(Cc2cn(Cc3cc4cc(C)ccc4nc3Cl)nn2)c2ccccc21 | 29.4 | 30.6 | 31.3 | 23
7 | – | – | COc1ccc2nc(Cl)c(Cn3cc(CN4c5ccccc5C(C)=CC4(C)C)nn3)cc2c1 | 33.4 | 38.7 | 34 | 41.2
